In patent US11299510B2, “Substituted pyridopyrrolopyrimidine ribonucleosides for therapeutic uses” (USTAV ORGANICKE CHEMIE A BIOCHEMIE AV CR, V.V.I., priority 2018, dated 2022):

Experiments:
Format in all cases: cell-based
[1] = tested on: U2OS (human bone osteosarcoma); experiment: cytotoxic MTS test, U2OS; settings: U2OS cells
Excerpt: (§1) To evaluate the antitumor activity of newly prepared compounds for in vitro conditions, we used cytotoxic MTS test (Nosková V. et al., Neoplasma 2002, 49, 418-425) on cell lines derived from normal tissues or tumors. Specifically, cell lines K562 (human acute myeloid leukemia); K562-Tax (human acute myeloid leukemia, paclitaxel resistant subline, overexpress multiple drug resistant protein PgP); CEM (T-lymfoblastic leukemia); CEM-DNR-bulk (T-lymfoblastic leukemia, doxorubicin resistant); A549 (human lung adenocarcinoma); HCT116p53 wt (human colorectal cancer, wild-type); HCT116p53−/−(human colorectal cancer, mutant p53) a U2OS (human bone osteosarcoma) were used. Express characteristics, susceptibility profiles of classic antitumor drugs as well as methodology of cytotoxic MTS test have been repeatedly published (Denizot, F.; Lang, R., J. Immunol. Meth. 1986, 89, 271-277; Noskova, V., see above; Šarek J. et al., J, Med. Chem., 2003, 46, 5402-5415).

[2] = tested on: HL 60; experiment: cytotoxic MTS test, HL 60; settings: Homo sapiens; HL 60 cells
[3] = tested on: HeLa; experiment: cytotoxic MTS test, HeLa; settings: Homo sapiens; HeLa cells
[4] = tested on: MRC-5 (normal human fibroblasts); experiment: cytotoxic MTS test, MRC-5; settings: MRC5, MRC-5 cells
[5] = tested on: BJ (normal human fibroblasts); experiment: cytotoxic MTS test, BJ; settings: BJ cells
[6] = tested on: CEM (T-lymfoblastic leukemia); experiment: cytotoxic MTS test, CEM; settings: Homo sapiens, CCRF-CEM; CEM cells
Excerpt: as §1

[7] = tested on: K562-Tax (human acute myeloid leukemia, paclitaxel resistant subline); experiment: cytotoxic MTS test, K562-TAX; settings: K562-TAX cells
Excerpt: as §1

[8] = tested on: K562 (human acute myeloid leukemia); experiment: cytotoxic MTS test, K562; settings: K562 cells
Excerpt: as §1

[9] = tested on: HCT116p53 wt (human colorectal cancer, wild-type); experiment: cytotoxic MTS test, HCT116; settings: HCT-116, HCT116 cells
Excerpt: as §1

[10] = tested on: CCRF-CEM; experiment: cytotoxic MTS test, CCRF-CEM; settings: Homo sapiens; CCRF-CEM cells
Excerpt: as §1

[11] = tested on: Hep G2; experiment: cytotoxic MTS test, Hep G2; settings: Homo sapiens, HepG2; Hep G2 cells
[12] = tested on: A549 (human lung adenocarcinoma); experiment: cytotoxic MTS test, A549; settings: A549 cells
Excerpt: as §1

[13] = tested on: HCT116p53−/− (human colorectal cancer, mutant p53); experiment: cytotoxic MTS test, HCT116p53; settings: HCT116p53 cells
Excerpt: as §1

[14] = tested on: CEM-DNR-bulk (T-lymfoblastic leukemia, doxorubicin resistant); experiment: cytotoxic MTS test, CEM-DNR; settings: Homo sapiens; CEM-DNR cells
Excerpt: as §1

Measured: IC50

CN(C)c1ncnc2c1c1ncccc1n2[C@@H]1O[C@H](CO)[C@@H](O)[C@H]1O [Compound 1e, 4-(dimethylamino)-9-(β-D-ribofuranosyl)-9H-pyrido[2′,3′:4,5]pyrrolo[2,3-d]pyrimidine]
> 50 µM: all assays above

CN(C)c1ncnc2c1c1ccncc1n2[C@@H]1O[C@H](CO)[C@@H](O)[C@H]1O [Compound 2e, 4-(dimethylamino)-9-(β-D-ribofuranosyl)-9H-pyrido[4′,3′:4,5]pyrrolo[2,3-d]pyrimidine]
> 50 µM: all assays above

CSc1ncnc2c1c1ncccc1n2[C@@H]1O[C@H](CO)[C@@H](O)[C@H]1O [Compound 1b, 4-(methylsulfanyl)-9-(β-D-ribofuranosyl)-9H-pyrido[2′,3′:4,5]pyrrolo[2,3-d]pyrimidine]
> 50 µM: all assays above
